{"source": "ChEMBL document CHEMBL4177745", "about": "“2-Methyltetrahydro-3-benzazepin-1-ols - The missing link in SAR of GluN2B selective NMDA receptor antagonists” (Bioorg Med Chem, 2018)", "key": {"[1]": {"target": "Sigma non-opioid intracellular receptor 1 (Cavia porcellus, UniProt Q60492)", "sequence (Q60492 whole entry)": "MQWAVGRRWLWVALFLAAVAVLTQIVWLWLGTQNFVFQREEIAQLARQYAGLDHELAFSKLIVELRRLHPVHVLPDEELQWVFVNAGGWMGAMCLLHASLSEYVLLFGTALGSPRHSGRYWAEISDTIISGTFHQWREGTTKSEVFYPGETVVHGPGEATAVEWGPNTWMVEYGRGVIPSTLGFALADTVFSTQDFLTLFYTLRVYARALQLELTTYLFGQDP", "experiment": "Displacement of [3H]-(+)-Pentazocine from sigma 1 receptor in guinea pig brain cortex membranes after 120 mins by scintillation counting analysis", "format": "cell membranes"}, "[2]": {"target": "T1, Sigma intracellular receptor 2 (Rattus norvegicus, UniProt Q5U3Y7)", "T1 sequence (Q5U3Y7 whole entry)": "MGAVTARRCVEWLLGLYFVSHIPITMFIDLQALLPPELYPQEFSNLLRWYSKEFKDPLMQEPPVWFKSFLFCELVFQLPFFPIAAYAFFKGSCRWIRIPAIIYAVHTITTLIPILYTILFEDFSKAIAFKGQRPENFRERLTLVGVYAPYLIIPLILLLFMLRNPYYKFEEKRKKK", "experiment": "Displacement of [3H]-DTG from sigma 2 receptor in rat liver membranes after 120 mins by scintillation counting analysis", "format": "cell membranes, Membrane"}, "[3]": {"experiment": "Displacement of [3H]-ifenprodil from recombinant human GluN1a/GluN2B expressed in L(tk-) cell membranes after 120 mins by scintillation counting analysis"}, "[4]": {"experiment": "Selectivity ratio of Ki for recombinant human GluN1a/GluN2B expressed in L(tk-) cell membranes to Ki for sigma 1 receptor in guinea pig brain cortex membranes", "format": "cell-based"}}}
{"compound": "OC1CN(CCCCc2ccccc2)CCc2ccccc21", "note": "(centres undefined)", "values": [{"measurement": "Ki", "setting": "[1]", "value": 676, "unit": "nM"}, {"measurement": "Ki", "setting": "[2]", "value": 76, "unit": "nM"}, {"measurement": "Ki", "setting": "[3]", "value": 73, "unit": "nM"}]}
{"compound": "Oc1ccc2c(c1)CCN(CCCCc1ccccc1)CC2O", "note": "(centres undefined)", "values": [{"measurement": "Ki", "setting": "[2]", "value": "> 10000", "unit": "nM"}, {"measurement": "Ki", "setting": "[3]", "value": 14, "unit": "nM"}]}
{"compound": "C[C@@H]1[C@H](O)c2ccc(O)cc2CCN1CCCCc1ccccc1", "values": [{"measurement": "Ki", "setting": "[2]", "value": 148, "unit": "nM"}, {"measurement": "Ki", "setting": "[3]", "value": 17, "unit": "nM"}]}
{"compound": "CC(C(O)c1ccc(O)cc1)N1CCC(Cc2ccccc2)CC1", "note": "(centres undefined) [IFENPRODIL]", "values": [{"measurement": "Ki", "setting": "[3]", "value": 10, "unit": "nM"}]}
{"compound": "C[C@@H]1[C@H](O)c2ccccc2CCN1Cc1ccccc1", "note": "(relative stereo)", "values": [{"measurement": "Ki", "setting": "[1]", "value": 261, "unit": "nM"}, {"measurement": "Ki", "setting": "[2]", "value": 894, "unit": "nM"}, {"measurement": "Ki", "setting": "[3]", "value": 259, "unit": "nM"}]}
{"compound": "C[C@@H]1[C@H](O)c2ccccc2CCN1CCCCc1ccccc1", "note": "(relative stereo)", "values": [{"measurement": "Ratio Ki", "setting": "[4]", "value": 5}, {"measurement": "Ki", "setting": "[1]", "value": 46, "unit": "nM"}, {"measurement": "Ki", "setting": "[2]", "value": 126, "unit": "nM"}, {"measurement": "Ki", "setting": "[3]", "value": 252, "unit": "nM"}]}
{"compound": "C[C@@H]1[C@H](O)c2ccccc2CCN1CCCCCc1ccccc1", "note": "(relative stereo)", "values": [{"measurement": "Ratio Ki", "setting": "[4]", "value": 5}, {"measurement": "Ki", "setting": "[1]", "value": 10, "unit": "nM"}, {"measurement": "Ki", "setting": "[2]", "value": 60, "unit": "nM"}, {"measurement": "Ki", "setting": "[3]", "value": 56, "unit": "nM"}]}
